In patent publication US4704384A, “Aziridinyl quinone antitumor agents” (priority 1981, dated 1987):
Values joined by “and” are separate entries in the source; they are usually repeats but may differ in a detail not shown here. Equal values may be shown once. “Also recorded” adds a separate entry of the source. Read-outs that look alike come from different tables or passages of the source.

Tests used:
lymphoid leukemia L1210 [1] = system: lymphoid leukemia L1210
Source text: ^b Ip tumor implantation, ip QD19 treatment schedule.
^e ILS = [(treated survival + control survival) × 100%] - 100%
The L1210, P388 and B16 test systems described in Table II utilize intraperitoneal (IP) tumor implantation and IP drug treatment while the Lewis lung system employs subcutaneous tumor implantation and IP treatment. All three CNS tumor models (Table III) use intracerebral (IC) tumor implantation and IP treatment.
Aqueous saline solution (0.9%) was used as the drug vehicle. Normally, five doses were employed per experiment with the top dose chosen to produce toxicity. The lower doses were 50% of each preceeding dose.
Consistent with NCI antitumor test protocols, intraperitoneal (IP) administration of the drug was employed with all five tumor systems investigated. Tumor implantation was IP in the systems designated IP leukemia L1210 and P388 as well as B16 melanoma. Intracerebral (IC) tumor implantation was utilized in the IC L1210 and ependymoblastoma tumor systems.

B16 melanocarcinoma = assay type: in vivo, murine; conditions: for ILS: QD1-9, at OD, Table IX; for OD: QD1-9, Table IX
lymphoid leukemia L1210 [2] = assay type: in vivo, murine; conditions: for ILS: QD1-9, at OD
Source text: (§1) A third IC tumor model, the ependymoblastoma system, was also studied. This system requires intracerebral implantation of a solid tumor fragment while the IC L1210 and IC P388 systems utilize IC inoculated ascites tumor fluid. All three use IP drug treatment however. […] Cures (survivors from the group of six mice on the last day of the experiment) are indicated.

ependymoblastoma = assay type: in vivo, murine; conditions: for OD: QD1-5, Table X; for ILS: QD1-5, at OD; for ILS / animals alive per 6: Table X; for animals alive per 6: QD1-5, day 60, at OD; for survivors, EM: Table XI, parentheses, per 6
Source text: ^c Ic tumor implantation, ip QD15 treatment schedule.
as §1

[3] = system: lymphocytic leukemia P388; assay type: in vivo, murine; conditions: for OD: QD1-9, Table IX; for ILS: QD1-9, at OD, Table IX
[4] = Day 1 only (1 injection), Table VIII
[5] = QD1-9 (9 injections), Table VIII

SMILES | OD (lymphoid leukemia L1210 [1]; [4]) | OD (lymphoid leukemia L1210 [1]; Q4D (day 1,5,9), Table VIII) | ILS (lymphoid leukemia L1210 [1]; Q4D, at OD, Table VIII) | OD (lymphoid leukemia L1210 [1]; [5]) [mg/kg/injection] | ILS (lymphoid leukemia L1210 [1]; QD1-9, at OD, Table VIII) | activity in B16 melanoma (B16 melanocarcinoma) | ILS (B16 melanocarcinoma) | OD (ependymoblastoma) | ILS (ependymoblastoma) | OD [3] | ILS [3] | OD (B16 melanocarcinoma) [mg/kg/injection] | activity in IP L1210 (lymphoid leukemia L1210 [1]) | also measured
CNC1=C(N2CC2)C(=O)C(NC)=C(N2CC2)C1=O [Compound 34] | 0.7 mg/kg/injection | 0.8 mg/kg/injection and 0.4 mg/kg/injection | 57% and 56% | 0.2 | 73% and 61% | approached minimal reproducible activity | 39% and 29% | 0.2 mg/kg/injection and 0.4 mg/kg/injection | 219% and 218% | 0.2 mg/kg/injection and 0.1 mg/kg/injection | 95% and 69% |  |  | animals alive per 6 (lymphoid leukemia L1210 [1]; QD1-9, day 30, at OD, Table VIII): 1; activity in IC L1210 (lymphoid leukemia L1210 [2]): most active; also recorded: significant activity; OD (lymphoid leukemia L1210 [2]; QD1-9, Table X): 0.4 mg/kg/injection and 0.2 mg/kg/injection; ILS (lymphoid leukemia L1210 [2]; Table X): 68% and 60%; activity in ependymoblastoma (ependymoblastoma): among the most active materials; animals alive per 6 (ependymoblastoma): 5 and 4; survivors, EM (ependymoblastoma): 5
O=C1C(N2CC2)=C(N2CCCC(O)C2)C(=O)C(N2CC2)=C1N1CCCC(O)C1 (centres unmarked) [Compound 45] |  | 6.0 mg/kg/injection and 4.0 mg/kg/injection | 104% and 84% | 3.0 | 59% and 44% | approached minimal reproducible activity | 40% and 37% |  | 64% and 48% | 1.0 mg/kg/injection | 95% and 78% | 1.0 |  | animals alive per 6 (lymphoid leukemia L1210 [1]; Q4D, day 30, at OD, Table VIII): 2; OD (lymphoid leukemia L1210 [2]; Q4D(1,5,9), Table X): 8.0 mg/kg/injection and 6.0 mg/kg/injection
O=C1C(N2CCCC2)=C(N2CC2)C(=O)C(N2CCCC2)=C1N1CC1 [Compound 43, 2,5-DIAZIRIDINYL-3,6-DIPYRROLIDINO-1,4-BENZOQUINONE] | 4.0 mg/kg/injection and 2.0 mg/kg/injection | 6.2 mg/kg/injection | 43% | 2.0 | 24% and 21% |  | 28% and 18% | 1.6 mg/kg/injection and 3.1 mg/kg/injection |  |  | 72% and 55% | 2.0 |  | ILS (lymphoid leukemia L1210 [1]; Day 1 only, at OD, Table VIII): 8%; T-C (lymphoid leukemia L1210 [1]; Q4D, day 5, at OD, Table VIII): -2.3 grams
O=C1C(F)=C(N2CC2)C(=O)C(N2CCOCC2)=C1N1CC1 [Compound 31, 2,5-DIAZIRIDINYL-3-FLUORO-5-MORPHOLINO-1,4-BENZOQUINONE] |  | 6.2 mg/kg/injection and 3.1 mg/kg/injection |  |  |  |  | 18% and 9% | 0.8 mg/kg/injection and 1.5 mg/kg/injection | 49% and 40% | 3.0 mg/kg/injection and 6.0 mg/kg/injection | 57% and 54% | 0.7 |  | activity in IP P388 [3]: active against leukemia P388
CCSC1=C(N2CC2)C(=O)C(SCC)=C(N2CC2)C1=O [Compound 5] |  |  |  |  |  |  |  |  |  |  |  |  | not reproducible | % ILS (lymphoid leukemia L1210 [1]; Q4D schedule): 30%
CCOC(=O)NC1=C(N2CC2(C)C)C(=O)C(NC(=O)OCC)=C(N2CC2(C)C)C1=O [Compound 11] |  |  |  |  |  |  |  |  |  |  |  |  | abolished activity | 
CNC1=C(N2CC2C)C(=O)C(NC)=C(N2CC2C)C1=O (centres unmarked) [Compound 26] | 5.0 mg/kg/injection and 10.0 mg/kg/injection | 12.5 mg/kg/injection | 93% and 52% | 5.0 | 69% and 37% | reproducibly active | 70% and 48% | 10.0 mg/kg/injection and 5.0 mg/kg/injection |  |  |  | 5.0 |  | ILS (lymphoid leukemia L1210 [1]; Day 1 only, at OD, Table VIII): 42% and 39%; OD (lymphoid leukemia L1210 [2]; QD1-9, Table X): 5.0 mg/kg/injection and 10.0 mg/kg/injection; ILS (lymphoid leukemia L1210 [2]; Table X): 39% and 25%; activity in ependymoblastoma (ependymoblastoma): highly active; animals alive per 6 (ependymoblastoma): 1; survivors, EM (ependymoblastoma): 1
CCOC(=O)NC1=C(N2CC2C)C(=O)C(NC(=O)OCC)=C(N2CC2C)C1=O (centres unmarked) [Compound 10] |  |  |  |  |  |  |  |  |  |  |  |  | abolished activity | 
